# Laboratory results: ChEMBL document CHEMBL3507680, “University of Dundee, Gates Library screen for HepG2 cell viability”
# Experiment: Human HepG2 cell viability assay in 384 well format
# Type: toxicity, cell-based
# Set-up: dose 125 nL, time 70.5 hour; cytotoxicity at 70.5 h: concentration not given beside the values
# Conditions: HepG2 cells, read-out: Inhibition
row,Structure (SMILES),cytotoxicity at 70.5 h [%]
1,Cc1nn(CCO)c(C)c1CNCc1cccnc1N(C)C,-4.11
2,Cn1ccnc1C(=O)NC[C@H]1OC[C@@H]2CCN(S(C)(=O)=O)C[C@@H]21,21.4
3,CCN(c1ccc(C(=O)N2CCCC(C)C2)cc1)S(=O)(=O)CC (stereo not drawn),-4.35
4,CCCn1c(C)c(CC(=O)N(C)CCO)c2c1CC(C)(C)CC2=O,26.2
5,COc1ccc(C(=O)C2CCCN(Cc3cccc(F)c3)C2)c(OC)c1 (stereo not drawn),-0.757
6,CC(=O)c1cccc(OCC(=O)NS(=O)(=O)c2cccs2)c1,-6.58
7,Cc1ccc(NC(=O)c2n[nH]c(-n3cnnc3)n2)cc1C,28.4
8,O=C(Cn1cc(C(=O)O)ccc1=O)NCc1ccc(F)c(Cl)c1,-13.4
9,O=C(CCOc1cccc(F)c1)N1CCCC1Cn1cccn1 (stereo not drawn),-0.422
10,CC1(Cc2cccnc2)NCCc2[nH]cnc21 (stereo not drawn),10.5
11,CN(C)c1cc(CNCc2ccc(N3CCOCC3)cc2)ccn1,-6.16
12,Cc1occc1C(=O)NCc1cccnc1N(C)C,-14.4
13,CN1CCN(C(=O)[C@H]2C[C@@H]3CCN(c4ncc(F)cn4)C[C@@H]3O2)CC1,-13.1
14,CC(NC(=O)c1ccc(Cl)cc1)c1nnc(SCC(=O)O)n1C (stereo not drawn),18.7
15,O=C(NCC1(Sc2ccccc2)CC1)c1cc[nH]n1,-1.79
16,CC(C)NC[C@@]1(COc2ccccc2)C[C@@H](O)[C@@H](O)C1,-5.31
17,CCc1nc(NS(=O)(=O)c2cccc(F)c2C)no1,7
18,Cn1ccnc1CN1CCN(Cc2noc(C3CC3)n2)CC1,-12.6
19,Cn1cccc1C(=O)NC1CCN(c2ccc(OC(F)(F)F)cc2)CC1,16.6
20,CCCC1CN(CCOC)C(=O)c2cccnc2O1 (stereo not drawn),-8.12
21,COCCN1C[C@@H]2CN(C(=O)CC3CC3)C[C@@H]2C1=O,-6.26
22,CC1CCN(CCNC(=O)C2CCN(C(=O)C3CC3)CC2)CC1,-3.28
23,CC(=O)Cn1ncc(N2CCOCC2)cc1=O,-0.483

row,Structure (SMILES),cytotoxicity at 70.5 h [%]
1,Cc1cc(CN2CCN(C(=O)C(C(C)C)n3cncn3)CC2)on1 (stereo not drawn),-10.4
2,O=C(c1ccco1)N1C[C@@H]2OCCN(c3ncccn3)[C@@H]2C1,-13.6
3,Cc1nc(Nc2ncccn2)cc(C2CCCN2CC(C)C)n1 (stereo not drawn),43.1
4,CN1CCOCC12CCN(c1ccc(C#N)cc1)CC2,-5.69
5,COc1ccc(-n2c(SCC(=O)O)nnc2-c2cn[nH]c2)cc1,15.3
6,O=C(O)c1cc2c(nc1-c1cncnc1)CCN(C1CCOC1)CC2 (stereo not drawn),11.3
7,COCCOc1cccc(C(=O)N2CCCC(n3cccn3)C2)c1 (stereo not drawn),-14.7
8,COCCNc1ccc(CNC(=O)C2COc3ccccc32)cc1 (stereo not drawn),19.2
9,Cn1ncc2c(=O)[nH]c(CN3CCC(Cc4ccccc4)CC3)nc21,34.8
10,O=C(NCCNS(=O)(=O)c1ccc2c(c1)CCC2)c1ccccc1,-1.96
11,Cn1ccnc1CN1CCCC1Cn1cccn1 (stereo not drawn),-1.33
12,Cc1nc(-c2ccc(CC(=O)N3CCN(C(=O)C(C)C)CC3)cc2)cs1,-1.97
13,CS(=O)(=O)Nc1ccc(CNC(=O)CN2CCc3ccccc32)cc1,7.44
14,O=C(Cn1cccn1)N1CCC(c2nnc(C(F)(F)F)o2)CC1,30.9
15,Cc1cccc(CN2CCN(c3ncnc4[nH]ccc34)CC2CCO)n1 (stereo not drawn),-3.92
16,COCCCNC(=O)N1CCN(C(=O)c2nsc3ccc(C)cc23)CC1,20.4
17,CS(=O)(=O)CCCN(CCc1cccc(F)c1)C1CC1,21.4
18,COc1ccc(C(C)NCc2scnc2C)cc1Cn1cccn1 (stereo not drawn),0.409
19,CCn1cc(NC(=O)NCc2ccc(CO)c(F)c2)cn1,-7.1
20,CC(C)CN1CCc2c(CN(C)Cc3ccco3)cncc2C1,4.58
21,CN(C)C(=O)N1CCC[C@]2(C(=O)N(C)C)CN(c3ccccn3)C[C@@H]2C1,-10.5
22,O=C(CCCOCc1ccccc1)N1CCCC(c2ncc[nH]2)C1 (stereo not drawn),-22.8
23,O=C(Nc1ccccc1)[C@H]1CN2CC[C@H]1C[C@@H]2Cn1cc(CCO)nn1,-3.35

row,Structure (SMILES),cytotoxicity at 70.5 h [%]
1,CN(C)C(Cn1ccnc1-c1nccn1C)c1ccccc1Cl (stereo not drawn),-5.92
2,Cc1[nH]c2ccc(CNC(=O)c3ccc(CN4CCCC4)o3)cc2c1C,-7.28
3,CC1CS(=O)(=O)CCN1Cc1ccccc1N(C)C (stereo not drawn),-0.403
4,CCc1n[nH]c(C2CN(C(=O)c3cc4c(s3)CCCC4)CCO2)n1 (stereo not drawn),4.71
5,CC(C)NC(=O)N1CC[C@@H]2[C@@H]1CC(=O)N2Cc1cccnc1,-13.6
6,O=C(Cc1ccsc1)NCCc1ccoc1,-8.57
7,CN1CCCC1c1ccnc2nccn12 (stereo not drawn),-7.34
8,CC(C)c1ccc(C2(C(=O)NCCS(N)(=O)=O)CCC2)cc1,-9.09
9,Cc1nn(C)c2c(N3CCN(C(=O)c4ccccc4)CC3)ncnc12,-2.93
10,O=C(O)c1ccnc(-c2ccnc(N3CCC(F)(F)CC3)n2)c1,21
11,OC(CNC1CCOCC1)c1ccc(Cl)c(F)c1 (stereo not drawn),0.212
12,O=C1N(CC2CC2)CCC12CCCN(c1ncc(F)cn1)C2 (stereo not drawn),-3.11
13,CCc1nc(CN2CCCN(C(=O)c3cnc[nH]3)CC2)cs1,-14.3
14,c1ccn2c(C3CCCN(c4ncnc5c4CCNC5)C3)nnc2c1 (stereo not drawn),8.25
15,Cc1nc(-c2ccccc2)n(CC(=O)NC(C)C)n1,-1.29
16,CC(C)c1nc(CN2CCCC2CN2CCCC2)cs1 (stereo not drawn),-7.95
17,Cn1ccc2c(-c3ccc(NCCO)nn3)ccnc21,-9.8
18,Cc1ccc(CCN2CCCC23Cc2ccccc2CNC3=O)cc1 (stereo not drawn),-4.38
19,CN1CCc2c(C#N)c(NCCCO)n3cnnc3c2C1,-20.7
20,CO[C@H]1COC[C@@H]1NC(=O)C1(Oc2ccc(Cl)cc2)CCNCC1,-6.36
21,COc1cccc2ccc(CN3CCN(c4ncccn4)CC3)nc12,-5.87
22,Cc1nc(C(=O)N2CCC3(CC2)CC(=O)N(CC2CCCO2)C3)cs1 (stereo not drawn),-9.89
23,COc1cccc(CNC(=O)c2cccnc2SC(C)C)c1,-5.9

row,Structure (SMILES),cytotoxicity at 70.5 h [%]
1,Cn1cc(CCC(=O)NC(c2ccc(F)cc2)C(F)(F)F)cn1 (stereo not drawn),-8.97
2,COc1cc(N2C[C@@H]3COC[C@]3(COc3cccnc3)C2)ncn1,-5
3,Cc1cc(F)c(C(C(=O)O)N2CCN(Cc3ccccn3)CC2)cc1Cl (stereo not drawn),-6.6
4,CCCn1ccnc1CN1C[C@@H](NC(C)=O)[C@H](c2ccc(OC)cc2)C1,15.8
5,CCOc1ncccc1C(=O)N(C)C1CCN(c2ccccn2)CC1,2.78
6,CC(C)c1ncc(CN2C[C@@H](CN3CCCCC3)[C@@H](CO)C2)cn1,-2.58
7,CC(C)N(C)C(=O)c1ccc(Cl)c(NC(=O)COCC2CC2)c1,-6.46
8,Cc1c(NC(=O)CN2CCC(Oc3cnccn3)CC2)cnn1C,-3.61
9,CC(C)(C)CC(=O)N1[C@@H](c2ccco2)[C@@H](CO)C[C@]12CCCCNC2=O,-5.67
10,CC(C)CN1C[C@H]2CCN(c3ncccn3)CC[C@H]2S1(=O)=O,-12.5
11,Cc1cc(CS(=O)(=O)N(C)C(C)c2ccc(F)cc2)on1 (stereo not drawn),-7.52
12,CCc1ccc(CCNc2ncnc3c2CCN(C(=O)C2CC2)C3)cc1,7.48
13,CCn1nc(C)cc1C(=O)N1CCOc2ccc(OC)cc21,-4.62
14,c1ccc(OCCNC2CCCN(Cc3noc(C4CC4)n3)C2)cc1 (stereo not drawn),-7.17
15,CCOC(=O)C1(Cc2cccc(OC)c2)CCN(Cc2ccon2)CC1,-11.6
16,c1cncc(C2COC3(CCN(CC4CC4)CC3)C2)c1 (stereo not drawn),-0.218
17,CC1CCN(c2ncc3c(n2)CN(c2ccc(F)cc2)C3=O)CC1,-2.02
18,Cc1ccc(CN(C)C(=O)c2cnsn2)cc1,4.93
19,CN1CCN(CCC(F)(F)C(F)F)CC12CCNC(=O)CC2 (stereo not drawn),4.17
20,O=C1O[C@@H]2CN(CCc3ccccc3)C[C@@H]2N1CCCN1CCOCC1,-3.23
21,COc1ccccc1Oc1ncccc1CNC(=O)[C@@H](N)CCO,8.7
22,Cc1cc(C)n(CC2CCN(CC(O)Cn3cccn3)CC2)n1 (stereo not drawn),-1.67
23,NC(=O)CC1CCN(S(=O)(=O)N2CCCC2c2ccco2)CC1 (stereo not drawn),-5.7

row,Structure (SMILES),cytotoxicity at 70.5 h [%]
1,c1cncc(OCc2nc(C3CC3)nn2-c2ccc3c(c2)OCCO3)c1,14.2
2,Cc1n[nH]c(=O)c2c(NC(=O)CN3CCOCC3C)oc(C)c12 (stereo not drawn),4.42
3,CC(NS(C)(=O)=O)C(=O)N(C)Cc1csc(-c2cccs2)n1 (stereo not drawn),-13.4
4,CS(=O)(=O)CCn1ccc(NC(=O)Cc2ccccc2F)n1,3.54
5,CN(C)c1nc2c(c(=O)[nH]1)Cc1ccccc1OC2,31.5
6,COc1ccc(C(C)NC(=O)Nc2nccs2)cc1OC (stereo not drawn),-8.99
7,CCOC(=O)COc1nc(CC(C)C)c2c(c1C#N)CCC2,1.02
8,O=C(Nc1cccc(C(F)(F)F)c1)N1CCN(CCn2ccnc2)CC1,-10.1
9,CC(C)c1n[nH]c(C2CN(C(=O)COc3ccc(F)cc3)CCO2)n1 (stereo not drawn),-8.14
10,Clc1ccccc1-c1nc(CNC2CCc3ncnn3C2)co1 (stereo not drawn),-2.04
11,COc1ccc(CC2(CO)CCN(c3cc(N)ncn3)CC2)cc1,-6.39
12,O=C(c1ccc[nH]1)N1CCC2(CC1)CC(Oc1cccnc1)CO2 (stereo not drawn),25
13,Cn1cc(N2CC3(COCCN(Cc4ccccn4)C3)OCC2=O)cn1 (stereo not drawn),-11.1
14,CN(Cc1noc(C2CC2)n1)C1CCN(CCn2cc(C#N)cn2)C1 (stereo not drawn),22.1
15,CCc1noc(CN(C)CCC(=O)Nc2ccccc2C#N)n1,-1.02
16,Cc1nc2c(c(N3CCCC(OCc4ccccn4)C3)n1)CCNCC2 (stereo not drawn),-14.9
17,O=C(NCC(c1ccc(F)cc1)N1CCOCC1)Nc1cn[nH]c1 (stereo not drawn),18.9
18,O=C(NCC1CC1)C1CSCN1S(=O)(=O)c1cccc(F)c1 (stereo not drawn),-0.541
19,Cc1nc(CSCCC(=O)Nc2cccc(N3CCNC3=O)c2)cs1,-0.129
20,Cc1nc(C(=O)N(C)C2CC(=O)N(Cc3ccccc3)C2=O)cs1 (stereo not drawn),-5.65
21,CC(=O)N1CCC2(CCCN(C(=O)c3ccccc3)C2)C1 (stereo not drawn),6.68
